Test results published in patent publication US20230285490A1, “ADDITIVE TO FISH FOOD COMPRISING TWO PLANT EXTRACTS AND A SEAWEED (PALMARIA PALMATA) EXTRACT AS TASTE MASKING AGENT; AND A METHOD TO COMBAT/ELIMINATE INFESTATIONS OF CALIGUS BY STERILIZATION OF FEMALE INDIVIDUALS IN FISH FARMING CENTERS AND MARINE CONCESSIONS” (priority 2020, published 2023).

Tested on: ovigerous Caligus females
Assay: In vitro plate bioassay on swimming behavior and survival of ovigerous Caligus females, comparison with emamectin benzoate (Example 7)
Details: 2 hours, 14° C., sea water
From the text: However, 75% living females slowly swam, having a slow response to stimulus and adhered to experimentation vessels. • Between 87 and 100% parasites survived in control with solvents (methanol and DMSO) used to prepare each product and in sea water. Under these conditions females actively swam and readily responded to stimulus as bubbles of the aeration system or manipulation with tweezers.

emamectin benzoate
Affected and dead Total (%) (15 ovigerous females): 27%
Affected ovigerous females (15 ovigerous females): 1
Vivas (living ovigerous females) (15 ovigerous females): 11
dead ovigerous females (15 ovigerous females): 3
Affected and dead Total (%) (15 ovigerous females, listed as emamectin benzoate): 25%
remaining living females with slow/erratic swimming: 75%
